This note sets out measurements from patent US20230108408A1, “OXALAMIDE SUBSTITUTED HETEROCYCLIC COMPOUNDS AS MODULATORS OF THE ARYL HYDROCARBON RECEPTOR (AHR)” (PHENEX PHARMACEUTICALS AG, priority 2020, published 2023).

This test concerns the target T1, AhR (Homo sapiens, UniProt P35869).
T1 construct: The HepG2 CYP1A1-Luc cells do express basal luciferase activity that can be increased via potent AhR agonists or decreased via potent AhR antagonists; endogenous in cells
T1 sequence (P35869 11-848): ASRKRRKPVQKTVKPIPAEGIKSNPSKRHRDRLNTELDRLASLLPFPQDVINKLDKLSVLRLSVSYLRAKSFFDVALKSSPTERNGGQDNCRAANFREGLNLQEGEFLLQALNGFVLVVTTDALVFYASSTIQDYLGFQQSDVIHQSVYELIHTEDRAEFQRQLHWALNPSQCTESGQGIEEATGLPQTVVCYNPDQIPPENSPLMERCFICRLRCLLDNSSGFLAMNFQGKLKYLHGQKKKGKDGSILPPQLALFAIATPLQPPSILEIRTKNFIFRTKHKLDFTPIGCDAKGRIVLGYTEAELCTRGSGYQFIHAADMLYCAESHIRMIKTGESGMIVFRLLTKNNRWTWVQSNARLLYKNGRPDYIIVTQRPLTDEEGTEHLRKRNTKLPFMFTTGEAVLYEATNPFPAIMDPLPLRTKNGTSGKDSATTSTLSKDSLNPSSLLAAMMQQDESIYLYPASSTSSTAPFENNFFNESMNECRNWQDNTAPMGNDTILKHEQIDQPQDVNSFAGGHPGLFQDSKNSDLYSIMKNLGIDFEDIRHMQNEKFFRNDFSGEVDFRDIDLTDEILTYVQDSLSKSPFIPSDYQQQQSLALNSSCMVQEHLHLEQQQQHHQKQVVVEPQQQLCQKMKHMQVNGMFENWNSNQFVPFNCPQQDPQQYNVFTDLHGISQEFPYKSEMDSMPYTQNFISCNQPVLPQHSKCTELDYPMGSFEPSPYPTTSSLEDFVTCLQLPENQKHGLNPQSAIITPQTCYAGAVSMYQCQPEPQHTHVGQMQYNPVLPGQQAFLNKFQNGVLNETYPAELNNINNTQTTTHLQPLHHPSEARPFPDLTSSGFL
Description: AhR Direct Luciferase Reporter Assay in HepG2 Cells. The note with it: AhR antagonistic potency; HepG2 CYP1A1-Luc cells, 18 hours, no exogenous AhR agonist or 10 nM VAF347. The format is cell-based. From the text: AhR Direct Luciferase Reporter Assay in HepG2 Cells.
A stable cell line (HepG2 CYP1A1-LUC) was used in which part of the promoter region of the human CYP1A1 gene is stably integrated into the genome of human HepG2 hepatocytes (DSZM #ACC 180) in front of a Photinus pyralis Firefly Luciferase gene. A 1210 bp fragment comprising part of the human CYP1A1 promoter was isolated via SacI and BgIII restriction digestion from Lightswitch Clone S714555 (SwitchGearGenomics) and inserted between the SacI and BgIII sites in pGL4.30 (Promega #E8481) in front of the Firefly Luciferase gene. The resulting vector was linearized with NotI, transfected into HepG2 cells (DSMZ #ACC 180) and stably transfected clones selected with 250 μg/ml Hygromycin B. After repetitive rounds of subcloning and testing for robustly regulated luciferase activity after AhR agonist stimulation, a stable clonal HepG2 CYP1A1-Luc cell line was selected.
The HepG2 CYP1A1-Luc cells do express basal luciferase activity that can be increased via potent AhR agonists or decreased via potent AhR antagonists, added to the growth medium of the cells.
In typical reporter assays performed with this cell line, cells are grown in 96-well plates and AhR modulators are titrated into the growth medium in serial dilutions in RPMI-1640 Medium (Sigma #R7509) supplemented with 8.6% fetal calf serum (Sigma #F7524) and containing either no exogenous AhR agonist or 10 nM of the potent AhR agonist VAF347 (Calbiochem #182690). Cells are further cultivated for 18 hours and luciferase activities are determined from extracts of cells in buffers containing D-Luciferine and ATP using a LUMIstar Optima microplate Luminometer from BMG Labtech.
(In general: In a reporter assay the amount or activity of a reporter protein is the signal.)
With `COCCN(C)C(=O)C(=O)Nc1ccc2cc(-c3cc(C#N)ccc3C(F)(F)F)[nH]c2n1` [1/4], the half-maximal inhibitory concentration (IC50) (as a rule, the concentration at which inhibition is half-maximal) is 100 to 1000 nM.

As for `CN1CCN(C(=O)C(=O)Nc2ccc3cc(-c4cc(C#N)ccc4C(F)(F)F)[nH]c3n2)CC1` [1/2], the IC50 is > 1000 nM.

On to `N#Cc1ccc(C(F)(F)F)c(-c2cc3ccc(NC(=O)C(=O)NCc4ccccc4)nc3[nH]2)c1` [2/1, N^1-Benzyl-N^2-(2-(5-cyano-2-(trifluoromethyl)phenyl)-1H-pyrrolo[2,3-b]pyridin-6-yl)oxalamide], for which the IC50 lay within 100 to 1000 nM.

Turning to `N#Cc1ccc(C(F)(F)F)c(-c2cc3ccc(NC(=O)C(=O)N4CCOCC4)nc3[nH]2)c1` [1/1], the IC50 lay in the range of 100 to 1000 nM.

As to `CC1CCN1C(=O)C(=O)Nc1ccc2cc(-c3cc(C#N)ccc3C(F)(F)F)[nH]c2n1` (stereo not shown) [1/6], the half-inhibitory concentration (IC50) is < 100 nM.

In turn, `N#Cc1ccc(C(F)(F)F)c(-c2cc3ccc(NC(=O)C(=O)N4CCC4)nc3[nH]2)c1` [1/7] displayed an IC50 of 100 to 1000 nM.

For `CC1(O)CN(C(=O)C(=O)Nc2ccc3cc(-c4cc(C#N)ccc4C(F)(F)F)[nH]c3n2)C1` [Example 2, N-(2-(5-Cyano-2-(trifluoromethyl)phenyl)-1H-pyrrolo[2,3-b]pyridin-6-yl)-2-(3-hydroxy-3-methylazetidin-1-yl)-2-oxoacetamide], the IC50 fell in the range of 100 to 1000 nM.

Turning to `N#Cc1ccc(C(F)(F)F)c(-c2cc3ccc(NC(=O)C(=O)N4CCCC4)nc3[nH]2)c1` [Example 1, N-(2-(5-Cyano-2-(trifluoromethyl)phenyl)-1H-pyrrolo[2,3-b]pyridin-6-yl)-2-oxo-2-(pyrrolidin-1-yl)acetamide], the IC50 was < 100 nM.

For the molecule `N#Cc1ccc(C(F)(F)F)c(-c2cc3ccc(NC(=O)C(=O)N4CCC5(CC5)C4)nc3[nH]2)c1` [1/5], the half-maximal inhibitory concentration (IC50) is < 100 nM.

On to `CN(CC(F)(F)F)C(=O)C(=O)Nc1ccc2cc(-c3cc(C#N)ccc3C(F)(F)F)[nH]c2n1` [1/3], for which the concentration for half-maximal inhibition (IC50) was < 100 nM.
